Laboratory results as given in patent publication US9758788B2, “Mutagenesis of plants for overproduction of selective estrogen receptor modulators” (Naprogenix, Inc., priority 2014, dated 2017).

Legend:
[1] = tested on: Non-transgenic 1°HRs; test: Toxicity of DA-ergic toxins, trypan blue staining, non-transgenic hairy roots; assay type: cell-based, Lobelia cardinalis; details: 6-OHDA 50 uM, MPTP 100 μM, MPP+ 100 μM
From the text: (§1) Trypan blue staining for toxicity was quantified using ImageJ software. […] Since MPTP is converted to the its cytotoxic metabolite, MPP+, by oxidases, biosynthesis of oxidase inhibitors would also confer a survival advantage if MPTP were chosen as a selection agent (monoamine oxidase inhibitors prevent MPTP toxicity in SH-SY5Y neuroblastoma cells).

[2] = tested on: transgenic hDAT 1°HRs; test: Toxicity of DA-ergic toxins, trypan blue staining, transgenic hairy roots; details: for cells killed by toxin exposure: 24 h, 6-OHDA 50 uM, MPTP 100 μM, MPP+ 100 μM
From the text: as §1

[3] = DPPH free radical scavenging assay; details: read-out: IC50, inhibition of DPPH free radical activity
From the text: (§2) Lobinaline was purified from a methanol extract prepared from dried aerial portions of L. cardinalis. The methanolic extract was dried under vacuum, resuspended in water, and defatted with hexane. The hexane phase was removed, and the remaining aqueous phase was partitioned with chloroform. The chloroform phase was collected, dried under vacuum, and lobinaline was purified from this fraction by acid/base extraction to yield lobinaline of ˜95% purity (single peak and spectroscopic authenticity by GC-MS). This compound was then dissolved in DMSO and used in aqueous solution to evaluate its effects on the dopamine transporter and nicAChRs, both in rat brain preparations and in the human dopaminergic neuroblastoma cell line SH-SY5Y. Antioxidant activity of lobinaline was evaluated using the dipheny picryl hydrazyl free radical scavenging assay.
Stable free radical diphenyl picryl hydrazyl (DPPH) scavenging was used to assess anti-oxidant activity.
Dried methanolic extracts prepared from individual L. cardinalis hairy roots were dissolved in assay buffer and tested for (a) concentration-dependent effects on [^3H]-DA uptake into rat striatal synaptosomes, (b) quenching stable DPPH radical, as measured by absorbance at 517 nm. The results are presented as “lobinaline equivalents” calculated from pure lobinaline concentration response curves (FIG. 1). […]

[4] = tested on: nicAChRs; test: [3H]-dopamine release from rat brain striatal slices; assay type: biochemical
[5] = target: T1, alpha7 nicAChR (Rattus norvegicus, UniProt Q05941); test: nicAChR binding: inhibition of [3H]-MLA binding; details: alpha7 selective ligand
T1 construct: from tissue; host or cells: rat brain preparation (inferred)
T1 sequence (Q05941 23-502): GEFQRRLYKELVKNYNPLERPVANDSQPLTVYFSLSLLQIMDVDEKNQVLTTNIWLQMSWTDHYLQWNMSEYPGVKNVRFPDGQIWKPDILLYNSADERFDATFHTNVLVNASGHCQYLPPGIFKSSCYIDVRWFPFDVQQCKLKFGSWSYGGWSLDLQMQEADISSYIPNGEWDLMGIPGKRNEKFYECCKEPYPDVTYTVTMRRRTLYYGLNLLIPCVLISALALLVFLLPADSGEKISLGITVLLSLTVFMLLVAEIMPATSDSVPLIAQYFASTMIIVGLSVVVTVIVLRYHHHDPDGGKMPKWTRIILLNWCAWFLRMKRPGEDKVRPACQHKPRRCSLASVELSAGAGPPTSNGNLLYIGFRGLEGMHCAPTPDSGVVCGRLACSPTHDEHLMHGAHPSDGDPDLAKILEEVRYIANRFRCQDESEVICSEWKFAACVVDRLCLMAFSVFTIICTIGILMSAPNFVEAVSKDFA
From the text: as §2
(§3) It is therefore relatively non-selective, whereas almost all known plant alkaloids are relatively selective for the […] nicAChR.

[6] = mice; compared with lobeline; cited from earlier work
[7] = target: T2, DAT (Rattus norvegicus, UniProt P23977); test: [3H]-GBR12935 specific binding to rat striatal membranes
T2 construct: from tissue; host or cells: rat striatal membranes
T2 sequence (P23977 whole entry): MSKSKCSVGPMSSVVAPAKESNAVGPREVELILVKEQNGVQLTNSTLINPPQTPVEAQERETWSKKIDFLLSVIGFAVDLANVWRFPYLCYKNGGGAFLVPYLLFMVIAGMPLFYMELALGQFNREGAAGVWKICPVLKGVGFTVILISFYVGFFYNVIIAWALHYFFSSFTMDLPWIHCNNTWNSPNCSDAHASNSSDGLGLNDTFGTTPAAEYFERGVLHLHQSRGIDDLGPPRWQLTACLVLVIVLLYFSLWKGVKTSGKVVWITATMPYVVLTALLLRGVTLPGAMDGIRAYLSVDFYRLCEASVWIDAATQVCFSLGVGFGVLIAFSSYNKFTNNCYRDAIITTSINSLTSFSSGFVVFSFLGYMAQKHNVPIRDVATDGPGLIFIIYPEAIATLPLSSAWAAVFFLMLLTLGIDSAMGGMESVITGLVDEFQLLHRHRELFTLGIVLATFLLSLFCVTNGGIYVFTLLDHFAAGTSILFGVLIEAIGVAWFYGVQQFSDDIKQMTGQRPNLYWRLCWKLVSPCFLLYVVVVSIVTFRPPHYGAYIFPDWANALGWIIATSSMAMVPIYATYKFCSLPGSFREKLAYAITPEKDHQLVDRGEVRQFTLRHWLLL
From the text: (§4) The low affinity binding of lobinaline to this site on the DAT may therefore not be directly related to its functional effect.

[8] = target: T3, dopamine transporter (DAT) (Rattus norvegicus, UniProt P23977); test: [3H]-dopamine uptake into rat striatal synaptosomes; assay type: biochemical
T3 construct: from tissue; host or cells: rat striatal synaptosomes
T3 sequence (P23977 whole entry): as above

[9] = tested on: SH-SY5Y cells; test: MPP+ toxicity on SH-SY5Y cells; assay type: cell-based, human
From the text: as §2, §4

[10] = target: nicAChRs; test: nicAChR binding: inhibition of [3H]-epibatidine binding; parameters: species or system rat; details: non-subtype selective radioligand
From the text: as §2, §3

[11] = PubChem; cited from earlier work

SMILES: CN1CC=C(c2ccccc2)CC1 [MPTP]
- damage by toxin exposure [1]: not significantly damaged
- cells killed by toxin exposure [2]: ~50%

SMILES: O=c1c(O)c(-c2ccc(O)c(O)c2)oc2cc(O)cc(O)c12 [quercetin, reference compound]
- IC50 [3]: 11.2 µM

SMILES: CN1CCCC2C(c3ccccc3)C(C3=NCCCC3)C(c3ccccc3)CC21 (stereo not shown) [lobinaline]
- effect on DA release induced by nicotine ([4]; 10 μM nicotine): reduced the DA release
- Ki [5]: 105 µM
- mammalian toxicity (LD50) [6]: low mammalian toxicity
- inhibition of [3H]-GBR12935 specific binding (extent) [7]: completely inhibited
- Ki ([7]; read-out: Ki, inhibition of [3H]-GBR12935 specific binding): 89 µM
- IC50 [3]: 21.1 µM
- maximum inhibition of dopamine uptake [8]: 85.25%
- IC50 ([8]; read-out: IC50, inhibition of [3H]-dopamine uptake): 12 µM
- concentration inhibiting the toxicity of MPP+ [9]: ~100 µM
- Ki [10]: 17.3 µM
- Hydrogen Bond Acceptors [11]: 2
- Hydrogen Bond Donors [11]: 0
- Log P [11]: 4.8

SMILES: Fc1ccc(C(OCCN2CCN(CCCc3ccccc3)CC2)c2ccc(F)cc2)cc1 [GBR12909]
- inhibition of toxin cytotoxicity ([2]; toxins 6-OHDA, MPTP or MPP+): inhibited

SMILES: C[n+]1ccc(-c2ccccc2)cc1 [MPP+]
- damage by toxin exposure [1]: not significantly damaged
- cells killed by toxin exposure [2]: ~50%

SMILES: NCCc1cc(O)c(O)cc1O [6-OHDA]
- damage by toxin exposure [1]: not significantly damaged
- cells killed by toxin exposure [2]: ~50%

SMILES: CNC1(C)C2CCC(C2)C1(C)C (stereo not shown) [mecamylamine, reference compound]
- inhibition of the initial phase of [3H] release caused by the lobinaline-containing fraction ([4]; 10 μM mecamylamine): almost completely inhibited
